Reference: patent US20260265238A1, “COMPOUNDS AND PHARMACEUTICAL COMPOSITIONS THAT DEGRADE SWI/SNF-RELATED MATRIX-ASSOCIATED ACTIN-DEPENDENT REGULATOR OF CHROMATIN SUBFAMILY A” (Plexium, Inc., priority 2023, published 2026)

Experiments:
[1] = biological target: T1, SMARCA2-HiBiT HeLa cells (protein which is expressed from the SMARCA2 gene) (Homo sapiens, UniProt P51531); test: SMARCA2 degradation assay (HiBiT-fusion HeLa cell line, 24 h, luminescence); assay type: cell-based
T1 construct: protein which is expressed from the SMARCA2 and SMARCA4 genes; host or cells: HeLa (SMARCA2-HiBiT engineered line)
Outline: (§1)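 In this 24-hour cellular degradation readout, HiBiT-tagged HeLa lines received compound at up to typically 10 μM down to 300 pM in 10 points. After lysis with LgBiT and substrate, luminescence signals were used to build dose-response curves for DC50.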

[2] = biological target: T2, SMARCA4-HiBiT HeLa cells (protein which is expressed from the SMARCA4 gene) (Homo sapiens, UniProt P51532); test: SMARCA4 degradation assay (HiBiT-fusion HeLa cell line, 24 h, luminescence); assay type: cell-based
T2 construct: protein which is expressed from the SMARCA2 and SMARCA4 genes; host or cells: HeLa (SMARCA4-HiBiT engineered line)
Outline: as §1

T2 sequence (P51532 whole entry, the tested form may be a part): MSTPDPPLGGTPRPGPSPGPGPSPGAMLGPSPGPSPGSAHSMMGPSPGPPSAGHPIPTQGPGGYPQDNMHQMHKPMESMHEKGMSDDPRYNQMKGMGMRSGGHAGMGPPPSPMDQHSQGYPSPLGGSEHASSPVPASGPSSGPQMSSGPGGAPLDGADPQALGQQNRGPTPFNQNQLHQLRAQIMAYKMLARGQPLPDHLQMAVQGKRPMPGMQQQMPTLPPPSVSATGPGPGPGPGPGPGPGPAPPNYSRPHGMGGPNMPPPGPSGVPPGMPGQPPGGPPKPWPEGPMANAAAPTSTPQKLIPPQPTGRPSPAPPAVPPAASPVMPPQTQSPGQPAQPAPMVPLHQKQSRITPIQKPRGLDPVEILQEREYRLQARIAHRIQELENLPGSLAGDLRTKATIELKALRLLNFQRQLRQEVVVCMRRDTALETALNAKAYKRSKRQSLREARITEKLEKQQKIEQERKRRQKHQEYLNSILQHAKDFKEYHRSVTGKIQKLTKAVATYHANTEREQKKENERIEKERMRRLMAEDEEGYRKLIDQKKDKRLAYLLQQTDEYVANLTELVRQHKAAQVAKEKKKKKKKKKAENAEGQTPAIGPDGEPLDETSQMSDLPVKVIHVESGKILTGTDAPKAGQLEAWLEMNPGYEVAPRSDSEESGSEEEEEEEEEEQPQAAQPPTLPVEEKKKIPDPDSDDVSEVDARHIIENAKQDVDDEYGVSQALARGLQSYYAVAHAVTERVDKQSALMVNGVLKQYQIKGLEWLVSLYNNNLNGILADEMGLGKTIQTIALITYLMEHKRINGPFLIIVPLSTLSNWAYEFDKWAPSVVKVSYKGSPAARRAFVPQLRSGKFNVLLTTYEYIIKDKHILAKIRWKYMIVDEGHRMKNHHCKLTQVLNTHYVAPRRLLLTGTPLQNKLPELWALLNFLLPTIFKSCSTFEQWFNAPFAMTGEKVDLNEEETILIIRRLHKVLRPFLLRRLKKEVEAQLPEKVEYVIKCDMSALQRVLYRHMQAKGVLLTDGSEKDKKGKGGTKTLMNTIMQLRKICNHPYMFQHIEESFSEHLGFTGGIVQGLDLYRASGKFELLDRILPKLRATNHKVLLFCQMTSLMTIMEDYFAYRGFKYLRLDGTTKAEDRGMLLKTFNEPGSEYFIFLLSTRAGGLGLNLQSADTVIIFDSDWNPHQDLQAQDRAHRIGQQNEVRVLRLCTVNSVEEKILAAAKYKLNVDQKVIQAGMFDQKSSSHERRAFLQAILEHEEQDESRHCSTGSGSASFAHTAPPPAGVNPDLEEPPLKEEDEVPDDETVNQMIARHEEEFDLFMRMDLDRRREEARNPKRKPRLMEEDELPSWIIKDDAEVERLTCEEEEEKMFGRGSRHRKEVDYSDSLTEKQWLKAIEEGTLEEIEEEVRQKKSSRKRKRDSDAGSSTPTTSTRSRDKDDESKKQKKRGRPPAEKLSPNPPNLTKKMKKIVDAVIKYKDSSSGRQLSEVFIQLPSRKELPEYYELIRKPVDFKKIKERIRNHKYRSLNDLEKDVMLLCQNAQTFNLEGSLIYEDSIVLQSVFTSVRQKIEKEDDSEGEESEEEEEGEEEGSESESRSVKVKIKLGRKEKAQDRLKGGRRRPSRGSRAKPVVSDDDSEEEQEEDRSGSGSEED
T1 sequence (P51531 whole entry, the tested form may be a part): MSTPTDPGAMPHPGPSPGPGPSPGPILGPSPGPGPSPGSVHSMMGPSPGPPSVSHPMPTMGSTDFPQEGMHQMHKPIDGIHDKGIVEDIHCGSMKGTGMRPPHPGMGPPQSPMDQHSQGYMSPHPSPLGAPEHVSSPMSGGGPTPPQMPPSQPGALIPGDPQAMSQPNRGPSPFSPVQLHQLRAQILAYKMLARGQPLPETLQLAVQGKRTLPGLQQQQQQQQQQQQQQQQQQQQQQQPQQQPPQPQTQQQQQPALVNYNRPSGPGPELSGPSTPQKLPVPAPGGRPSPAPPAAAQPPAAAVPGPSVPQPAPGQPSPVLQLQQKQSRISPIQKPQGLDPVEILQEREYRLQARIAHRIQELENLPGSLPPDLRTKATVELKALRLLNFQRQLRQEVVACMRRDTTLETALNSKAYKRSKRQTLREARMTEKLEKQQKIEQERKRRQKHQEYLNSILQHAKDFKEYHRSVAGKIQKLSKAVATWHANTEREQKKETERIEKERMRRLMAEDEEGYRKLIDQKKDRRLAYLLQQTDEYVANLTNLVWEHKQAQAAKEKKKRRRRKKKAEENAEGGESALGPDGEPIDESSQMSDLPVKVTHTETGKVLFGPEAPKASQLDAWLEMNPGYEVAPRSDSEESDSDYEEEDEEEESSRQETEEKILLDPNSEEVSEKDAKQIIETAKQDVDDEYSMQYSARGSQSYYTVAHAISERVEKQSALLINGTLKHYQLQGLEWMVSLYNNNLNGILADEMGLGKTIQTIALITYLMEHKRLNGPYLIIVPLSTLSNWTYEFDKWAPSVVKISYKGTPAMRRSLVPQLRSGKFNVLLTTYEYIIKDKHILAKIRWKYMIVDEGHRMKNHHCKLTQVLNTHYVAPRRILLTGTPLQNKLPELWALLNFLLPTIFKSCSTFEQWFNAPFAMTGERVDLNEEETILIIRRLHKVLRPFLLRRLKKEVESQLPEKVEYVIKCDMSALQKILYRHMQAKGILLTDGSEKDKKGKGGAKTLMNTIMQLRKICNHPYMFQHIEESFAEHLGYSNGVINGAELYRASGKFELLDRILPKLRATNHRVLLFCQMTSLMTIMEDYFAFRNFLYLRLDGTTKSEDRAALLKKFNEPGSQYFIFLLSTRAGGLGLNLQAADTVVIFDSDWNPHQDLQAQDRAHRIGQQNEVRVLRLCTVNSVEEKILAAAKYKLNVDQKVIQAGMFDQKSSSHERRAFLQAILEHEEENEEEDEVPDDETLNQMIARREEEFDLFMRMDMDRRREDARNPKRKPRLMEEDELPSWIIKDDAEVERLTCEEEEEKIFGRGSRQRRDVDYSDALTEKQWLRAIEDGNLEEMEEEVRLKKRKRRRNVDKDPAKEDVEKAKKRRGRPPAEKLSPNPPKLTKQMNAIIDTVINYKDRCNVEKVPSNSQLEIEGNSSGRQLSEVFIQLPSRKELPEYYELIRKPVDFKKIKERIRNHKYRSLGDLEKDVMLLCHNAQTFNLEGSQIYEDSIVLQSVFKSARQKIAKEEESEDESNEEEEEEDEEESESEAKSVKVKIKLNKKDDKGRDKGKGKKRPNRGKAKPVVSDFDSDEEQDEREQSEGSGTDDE

C[C@@H]1CCN(c2cc(-c3ccccc3O)nnc2N)CCN1c1cc(C#CCN(C)C)ncc1Cl [Compound P-409, 0-{5-[(R)-4-{5-chloro-2-[3-(dimethylamino)-1-propynyl]-4-pyridyl}-5-methyl-1,4-diazepan-1-yl]-6-amino-3-pyridazinyl}phenol]
DC50 [1]: 50 to 500 nM
SMARCA2 % Degradation @ 1 μM [1]: + (+=<30%)
DC50 [2]: 50 to 500 nM

C[C@@H]1CCN(c2cnnc(-c3ccccc3O)c2)CCN1c1ccc(C#N)c(C#CCNC(=O)c2cc3ncccn3n2)n1 [Compound P-410, N-[3-(6-{(R)-4-[6-(0-hydroxyphenyl)-4-pyridazinyl]-7-methyl-1,4-diazepan-1-yl}-3-cyano-2-pyridyl)-2-propynyl]-1,4,7a-triaza-2-indenecarboxamide]
DC50 [1]: > 5000 nM
DC50 [2]: > 5000 nM

C[C@H]1CCN(c2cc(-c3ccccc3O)nnc2N)CCN1c1ccc(C#N)c(C#CCN2CC[C@H](F)C2)n1 [Compound P-411, 6-{(S)-4-[3-amino-6-(o-hydroxyphenyl)-4-pyridazinyl]-7-methyl-1,4-diazepan-1-yl}-2-{3-[(S)-3-fluoro-1-pyrrolidinyl]-1-propynyl} nicotinonitrile]
DC50 [1]: 50 to 500 nM
SMARCA2 % Degradation @ 1 μM [1]: ++ (++=30-70%)
DC50 [2]: 50 to 500 nM
inhibition at 1 µM [2]: < 30%

C[C@@H]1CCN(c2cc(-c3ccccc3O)nnc2N)CCN1c1ccc(C#N)c(C#CCN2CC(F)(F)C2)n1 [Compound P-412, 6-{(R)-4-[3-amino-6-(0-hydroxyphenyl)-4-pyridazinyl]-7-methyl-1,4-diazepan-1-yl}-2-[3-(3,3-difluoro-1-azetidinyl)-1-propynyl]nicotinonitrile]
DC50 [1]: 50 to 500 nM
SMARCA2 % Degradation @ 1 μM [1]: ++ (++=30-70%)
DC50 [2]: 50 to 500 nM
inhibition at 1 µM [2]: < 30%

C[C@@H]1CCN(c2cc(-c3ccccc3O)nnc2N)CCN1c1ccc(C#N)c(C#CCN2CC(F)(F)[C@H]2C)n1 [Compound P-413, 6-{(R)-4-[3-amino-6-(o-hydroxyphenyl)-4-pyridazinyl]-7-methyl-1,4-diazepan-1-y1}-2-{3-[(R)-3,3-difluoro-2-methyl-1-azetidinyl]-1-propynyl} nicotinonitrile]
DC50 [1]: 50 to 500 nM
SMARCA2 % Degradation @ 1 μM [1]: ++ (++=30-70%)
DC50 [2]: > 5000 nM

C[C@@H]1CCN(c2cc(-c3ccccc3O)nnc2N)CCN1c1cc(C#CCN2CCCCC2)ncc1F [Compound P-414, 0-(5-{(R)-4-[5-fluoro-2-(3-piperidino-1-propynyl)-4-pyridyl]-5-methyl-1,4-diazepan-1-yl}-6-amino-3-pyridazinyl)phenol]
DC50 [1]: 50 to 500 nM
SMARCA2 % Degradation @ 1 μM [1]: + (+=<30%)
DC50 [2]: 50 to 500 nM
inhibition at 1 µM [2]: 30 to 70%

C[C@H]1CCN(c2cc(-c3ccccc3O)nnc2N)CCN1c1ccc(C#N)c(C#CCN(C)CC(F)(F)F)n1 [Compound P-415, 2-{3-[N-methyl(2,2,2-trifluoroethyl)amino]-1-propynyl}-6-{(S)-4-[3-amino-6-(o-hydroxyphenyl)-4-pyridazinyl]-7-methyl-1,4-diazepan-1-yl}nicotinonitrile]
DC50 [1]: 50 to 500 nM
SMARCA2 % Degradation @ 1 μM [1]: ++ (++=30-70%)
DC50 [2]: 50 to 500 nM
inhibition at 1 µM [2]: 30 to 70%

C[C@@H]1CCN(c2cc(-c3ccccc3O)nnc2N)CCN1c1ccc(C#N)c(C#CCN2CCC(F)(F)CC2)n1 [Compound P-416, 6-{(R)-4-[3-amino-6-(o-hydroxyphenyl)-4-pyridazinyl]-7-methyl-1,4-diazepan-1-yl}-2-[3-(4,4-difluoro-1-piperidyl)-1-propynyl]nicotinonitrile]
DC50 [1]: 50 to 500 nM
SMARCA2 % Degradation @ 1 μM [1]: +++ (+++=>70%)
DC50 [2]: 50 to 500 nM
inhibition at 1 µM [2]: > 70%

C[C@@H]1CCN(c2cc(-c3ccccc3O)nnc2N)CCN1c1cc(C#CCn2ccnc2)ncc1F [Compound P-417, 0-{5-[(R)-4-{5-fluoro-2-[3-(1-imidazolyl)-1-propynyl]-4-pyridyl}-5-methyl-1,4-diazepan-1-yl]-6-amino-3-pyridazinyl} phenol]
DC50 [1]: 50 to 500 nM
SMARCA2 % Degradation @ 1 μM [1]: ++ (++=30-70%)
DC50 [2]: 50 to 500 nM
inhibition at 1 µM [2]: 30 to 70%

CC1CC(C)N1CC#Cc1cc(N2CCN(c3cc(-c4ccccc4O)nnc3N)CC[C@H]2C)ccn1 (stereo partly drawn) [Compound P-418, 0-{5-[(R)-4-{2-[3-(2,4-dimethyl-1-azetidinyl)-1-propynyl]-4-pyridy1}-5-methyl-1,4-diazepan-1-yl]-6-amino-3-pyridazinyl}phenol]
DC50 [1]: < 50 nM
SMARCA2 % Degradation @ 1 μM [1]: +++ (+++=>70%)
DC50 [2]: < 50 nM
inhibition at 1 µM [2]: 30 to 70%

C[C@@H]1CCN(c2cc(-c3ccccc3O)nnc2N)CCN1c1cc(C#CCN(C)C)ncc1F [Compound P-419, 0-{5-[(R)-4-{2-[3-(dimethylamino)-1-propynyl]-5-fluoro-4-pyridy1}-5-methyl-1,4-diazepan-1-yl]-6-amino-3-pyridazinyl}phenol]
DC50 [1]: 50 to 500 nM
SMARCA2 % Degradation @ 1 μM [1]: + (+=<30%)
DC50 [2]: 50 to 500 nM
inhibition at 1 µM [2]: < 30%

C[C@@H]1CCN1CC#Cc1cc(N2CCN(c3cc(-c4ccccc4O)nnc3N)CC[C@H]2C)ccn1 [Compound P-420, 0-{5-[(R)-4-(2-{3-[(R)-2-methyl-1-azetidinyl]-1-propynyl}-4-pyridyl)-5-methyl-1,4-diazepan-1-yl]-6-amino-3-pyridaziny1}phenol]
DC50 [1]: < 50 nM
SMARCA2 % Degradation @ 1 μM [1]: +++ (+++=>70%)
DC50 [2]: < 50 nM
inhibition at 1 µM [2]: 30 to 70%

C[C@@H]1CCN(c2cc(-c3ccccc3O)nnc2N)CCN1c1ccnc(C#CCN2CC(F)(F)C2)c1 [Compound P-421, 0-{5-[(R)-4-{2-[3-(3,3-difluoro-1-azetidinyl)-1-propynyl]-4-pyridyl}-5-methyl-1,4-diazepan-1-yl]-6-amino-3-pyridazinyl}phenol]
DC50 [1]: 50 to 500 nM
SMARCA2 % Degradation @ 1 μM [1]: ++ (++=30-70%)
DC50 [2]: < 50 nM
inhibition at 1 µM [2]: 30 to 70%

C[C@@H]1CCN(c2cc(-c3ccccc3O)nnc2N)CCN1c1ccnc(C#CCN2[C@H](C)COC[C@@H]2C)c1 [Compound P-422, 0-{5-[(R)-4-(2-{3-[(3R,5S)-3,5-dimethyl-4-morpholiny1]-1-propynyl}-4-pyridyl)-5-methyl-1,4-diazepan-1-yl]-6-amino-3-pyridazinyl}phenol]
DC50 [1]: 50 to 500 nM
SMARCA2 % Degradation @ 1 μM [1]: + (+=<30%)
DC50 [2]: < 50 nM

C[C@@H]1CCN(c2cc(-c3ccccc3O)nnc2N)CCN1c1ccc(C#N)c(C#CCN(C)C)n1 [Compound P-423, 6-{(R)-4-[3-amino-6-(0-hydroxyphenyl)-4-pyridaziny1]-7-methyl-1,4-diazepan-1-yl}-2-[3-(dimethylamino)-1-propynyl]nicotinonitrile]
DC50 [1]: < 50 nM
SMARCA2 % Degradation @ 1 μM [1]: ++ (++=30-70%)
DC50 [2]: < 50 nM
inhibition at 1 µM [2]: 30 to 70%

C[C@@H]1CCN(c2cc(-c3ccccc3O)nnc2N)CCN1c1ccnc(C#CCn2cncn2)c1 [Compound P-424, 0-{5-[(R)-5-methyl-4-{2-[3-(1H-1,2,4-triazol-1-yl)-1-propynyl]-4-pyridyl}-1,4-diazepan-1-yl]-6-amino-3-pyridaziny1} phenol]
DC50 [1]: 50 to 500 nM
SMARCA2 % Degradation @ 1 μM [1]: +++ (+++=>70%)
DC50 [2]: 50 to 500 nM
inhibition at 1 µM [2]: 30 to 70%
